Test results reported in article PMC4184574, “Enantioselectivity in the cytochrome P450-dependent conversion of tegafur to 5-fluorouracil in human liver microsomes” (Pharmacology Research & Perspectives, 2013).

Key:
Format in all cases: in vitro ADME
CYP2C19 = target: T1, CYP2C19 (Homo sapiens, UniProt P33261); experiment: 5-FU formation from FT enantiomers by cDNA-expressed CYP2C19 (kinetics, velocity, RAF contribution); conditions: for CYP contribution: CYP2C19, RAF method, 30 μmol/L
T1 construct: purchased BD Gentest; host or cells: insect cells (baculovirus)
Description: (§1) (pooled preparations from 20 donors; Kansas City, KS). […] Insect microsomes expressing only NADPH-P450 oxidoreductase and cytochrome b5 were also used as control. These enzymes were stored at −80°C until use.
(§2) 5-FU formed from FT was subjected to extensive metabolism by dihydropyrimidine dehydrogenase (DPD) contaminating human hepatic preparations. Therefore, a potent DPD inhibitor, CDHP, was always added to avoid the unexpected loss of 5-FU (Ikeda et al. [2000]; Yamamiya et al. [2010]). Incubation mixture for hepatic microsomal metabolism contained FT, microsomes (1 mg protein/mL), 0.1 mmol/L CDHP, and an NADPH-generating system consisting of 1.3 mmol/L β-NADP^+, 3.3 mmol/L glucose-6-phosphate, 3.3 mmol/L magnesium chloride, and 0.4 units glucose-6-phosphate dehydrogenase in 100 mmol/L Tris (pH 7.4). Metabolic reaction by S9 and cytosol (each 2 mg protein/mL) was carried out in 100 mmol/L phosphate (pH 7.4) because TPase requires phosphate ions for catalyzing the reaction. In some cases, insect microsomes expressing recombinant CYP isoforms (20 pmol/mL) were added to the incubation mixtures in either 50, 100 mmol/L phosphate (pH 7.4) or 100 mmol/L Tris (pH 7.4), depending on supplier's recommendation. […] The reaction for the assay of FT metabolism was initiated by adding the substrate, following preincubation for 5 min at 37°C. […] The incubation times of microsomes, cytosol, and S9 were 15, 15, and 30 min, respectively. After centrifugation, the supernatant was collected and stored at −80°C until the determination of 5-FU. Because a small portion of FT is nonenzymatically converted to 5-FU, the content of 5-FU spontaneously formed was subtracted from total yield obtained after incubation to correct the activity. The spontaneous degradation of FT to 5-FU was evaluated using enzymes inactivated by heating them at 100°C for 5 min.
(§3) Concentration of 5-FU was determined using a LC/MS/MS system. […] The mobile phase consisted of 10 mmol/L ammonium acetate/acetonitrile 10:90 (v/v). The MS/MS analysis was performed in negative ionization mode under multiple reaction monitoring (MRM) mode, using mass transitions, m/z 128.6/41.8 for 5-FU and m/z 130.6/42.8 for ^15N2-5-FU, an internal standard (IS). […] For quantification of 5-FU, the calibration curves were linear over the range 2–1000 ng/mL.
(§4) In determining kinetic parameters, FT concentration ranged from 0.03 to 10 mmol/L. All reactions were performed in a linear range of 5-FU formation with respect to protein or CYP concentrations and incubation time. Eadie–Hofstee plot analysis was used to characterize enzyme kinetics in which kinetic parameters were estimated by fitting the data to the following equations (1) or (2): [drawing 1] (1) [drawing 2] (2) where V is 5-FU formation rate, S is FT concentration in the incubation mixture, Km1 and Km2 are affinity constants for high- and low-affinity components, respectively, and Vmax1 and Vmax2 are maximum velocities for high- and low-affinity components, respectively.
(§5) The contribution of CYPn to the metabolism of R- and S-FT at their concentration of 30 μmol/L was subsequently calculated using equation (4). [drawing 4] (4) VCYPn = 5-FU formation rate in cDNA-expressed CYPn.

CYP2E1 = target: T2, CYP2E1 (Homo sapiens, UniProt P05181); experiment: 5-FU formation from FT enantiomers by cDNA-expressed CYP2E1 (kinetics, velocity, RAF contribution); conditions: for CYP contribution: CYP2E1, RAF method, 30 μmol/L; for CLint / Km / Vmax: cDNA-expressed CYP2E1
T2 construct: purchased BD Gentest; host or cells: insect cells (baculovirus)
Description: as §1, §2, §3, §4, §5

[1] = 5-FU formation from FT enantiomers in pooled human hepatic cytosol
Description: as §1
5-FU formed from FT was subjected to extensive metabolism by dihydropyrimidine dehydrogenase (DPD) contaminating human hepatic preparations. Therefore, a potent DPD inhibitor, CDHP, was always added to avoid the unexpected loss of 5-FU (Ikeda et al. [2000]; Yamamiya et al. [2010]). Incubation mixture for hepatic microsomal metabolism contained FT, microsomes (1 mg protein/mL), 0.1 mmol/L CDHP, and an NADPH-generating system consisting of 1.3 mmol/L β-NADP^+, 3.3 mmol/L glucose-6-phosphate, 3.3 mmol/L magnesium chloride, and 0.4 units glucose-6-phosphate dehydrogenase in 100 mmol/L Tris (pH 7.4). Metabolic reaction by S9 and cytosol (each 2 mg protein/mL) was carried out in 100 mmol/L phosphate (pH 7.4) because TPase requires phosphate ions for catalyzing the reaction. […] The spontaneous degradation of FT to 5-FU was evaluated using enzymes inactivated by heating them at 100°C for 5 min.
Concentration of 5-FU was determined using a LC/MS/MS system. […] For quantification of 5-FU, the calibration curves were linear over the range 2–1000 ng/mL. […]

T1 sequence (P33261 whole entry): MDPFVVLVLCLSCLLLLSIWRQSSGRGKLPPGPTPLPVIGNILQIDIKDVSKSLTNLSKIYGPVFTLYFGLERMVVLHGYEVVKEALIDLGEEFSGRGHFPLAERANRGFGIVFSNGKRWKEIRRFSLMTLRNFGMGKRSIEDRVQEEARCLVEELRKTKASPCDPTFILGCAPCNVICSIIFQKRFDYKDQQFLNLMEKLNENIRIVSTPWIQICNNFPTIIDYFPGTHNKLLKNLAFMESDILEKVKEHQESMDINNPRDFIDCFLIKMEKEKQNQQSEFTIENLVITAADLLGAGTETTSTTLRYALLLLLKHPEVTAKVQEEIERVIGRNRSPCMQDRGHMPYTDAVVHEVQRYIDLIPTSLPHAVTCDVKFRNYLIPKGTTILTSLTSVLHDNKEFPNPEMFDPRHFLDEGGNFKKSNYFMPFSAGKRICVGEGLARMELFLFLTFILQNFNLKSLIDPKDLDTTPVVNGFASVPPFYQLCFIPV
T2 sequence (P05181 whole entry): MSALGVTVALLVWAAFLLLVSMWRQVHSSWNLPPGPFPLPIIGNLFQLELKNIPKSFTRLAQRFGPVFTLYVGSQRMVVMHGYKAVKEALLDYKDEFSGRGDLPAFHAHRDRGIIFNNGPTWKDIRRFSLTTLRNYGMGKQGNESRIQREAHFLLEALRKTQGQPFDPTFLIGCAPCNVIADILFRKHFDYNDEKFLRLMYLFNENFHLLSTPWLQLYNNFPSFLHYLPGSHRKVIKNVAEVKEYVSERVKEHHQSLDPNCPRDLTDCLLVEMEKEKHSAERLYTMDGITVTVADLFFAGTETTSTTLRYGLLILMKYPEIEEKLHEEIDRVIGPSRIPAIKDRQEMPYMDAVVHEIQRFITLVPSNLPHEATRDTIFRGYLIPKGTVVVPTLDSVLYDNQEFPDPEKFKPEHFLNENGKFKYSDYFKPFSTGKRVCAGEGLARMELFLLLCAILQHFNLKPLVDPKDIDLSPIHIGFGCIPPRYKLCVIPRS

SMILES | CYP contribution (CYP2C19) [%] | CLint (CYP2C19; cDNA-expressed CYP2C19) [nL min^−1 pmol^−1 CYP] | Km (CYP2C19; cDNA-expressed CYP2C19) [mM] | Vmax (CYP2C19; cDNA-expressed CYP2C19) [pmol min^−1 pmol^−1 CYP] | CYP contribution (CYP2E1) [%] | CLint (CYP2E1) [nL min^−1 pmol^−1 CYP] | Km (CYP2E1) [mM] | Vmax (CYP2E1) [pmol min^−1 pmol^−1 CYP] | Vmax [1] [pmol/min/mg] | Km ([1]; read-out: apparent Km) [mM]
O=c1[nH]c(=O)n([C@@H]2CCCO2)cc1F [S-FT] | 3.9 | 0.90 | 6.2 ± 0.3 | 5.5 ± 0.2 | 7.0 | 1.3 | 3.7 ± 0.2 | 4.7 ± 0.2 | – | –
O=c1[nH]c(=O)n([C@H]2CCCO2)cc1F [R-FT] | 0.59 | – | > 10 | – | 4.3 | 2.3 | 3.6 ± 0.3 | 8.4 ± 0.6 | 761 | 26
